This passage reports melting point results from a melting point compilation (Tetko et al.; mined from patent text by program, amines drawn as free bases though some values may be those of a salt).

By melting point is commonly meant the temperature of the solid-liquid transition. `O=[N+]([O-])c1ccc(-c2cc3c(Nc4ccc(Cl)cc4F)ncnc3o2)cc1`: the melting point lay in the range of 174 to 177 °C.

Consider `O=C(O)c1csc(C(F)F)c1`, for which the melting point was in the range of 131 to 132 °C.

`O=C(O)c1cc(-c2ccc(OC(F)(F)F)cc2)c2c3c(ccc2c1)OCO3` had a melting point of 296 to 300 °C.

As to `O=C(Cc1ccccc1)NC1CN(C(C(=O)O)c2ccc(O)cc2)C1=O` (stereo not given), the melting point was 134 to 141 °C.

Regarding `CCOC(=O)C1=C(C)NC(C)=C(C(=O)OCC)C1c1ncccc1O`, the melting point lay in the range of 238 to 239 °C.

`CCOC(=O)c1cn(Cc2ccc(OCc3nc(-c4ccccc4)oc3C)cc2)nc1O` registered a melting point of 152 to 153 °C.

`CN1CCN(Cn2cncc2-c2cc3c(Nc4ccc5[nH]ccc5c4)c(C#N)cnc3s2)CC1` registered a melting point greater than 245 °C.

In the case of `CC(=O)Nc1cc(C)c2c(C)c(C)[nH]c2c1`, the melting point worked out at 255 °C.

In turn, `CCCC1=NN(c2ccc(C(N)=O)cc2)C(=O)C1=CNc1ccccc1CC` came in with a melting point of 170 °C.

In turn, `CCOCc1nc2ncc(C)nc2c(=O)[nH]1` registered a melting point of 181 to 183 °C.

With `CC(=O)NC(C#N)NC(=O)c1cc(Cl)cc(Cl)c1` (stereo not given), the melting point fell in the range of 227 to 228 °C.

Turning to `CCCNC(=O)CCn1ccc(=O)c(OCc2ccccc2)c1C`, the melting point lay within 146 to 147 °C.

With `NS(=O)(=O)OCCCN1CCC(C(O)(c2ccc(F)cc2)c2ccc(F)cc2)CC1`, the melting point lay within 78 to 81 °C.

`COc1cc(OC)nc(Oc2c(Cl)cccc2C(=O)O)n1` returned a melting point of 151 to 152 °C.

`Nc1nc2ccccc2c2c1ncn2CCOCCCc1cncnc1` registered a melting point of 159 to 161 °C.

`COc1cccc(S(=O)(=O)c2cccc(N)c2C#N)c1` came in with a melting point of 186 to 191 °C.

`CCC(C#N)C(Br)c1ccc(Br)cc1` (stereo not given): the melting point was 87 °C.

For `CCOC(=O)Cc1c(C#N)cnc2c(NC(=O)c3c(Cl)cccc3Cl)cccc12`, the melting point fell in the range of 171 to 173 °C.

`O=CC1(Nc2ccccc2)CCN(Cc2ccccc2)CC1` came in with a melting point of 118 to 119 °C.

In turn, `O=C(Oc1ccccc1)N1CCC(Sc2ccncc2)CC1` gave a melting point of 102 to 104 °C.

Consider `CCCCCCCCOC(=O)C(N)C=CCP(=O)(O)O` (stereo not given), for which the melting point lay in the range of 161 to 162 °C.

In turn, `Cc1c(C)c2c(c(C)c1OCc1ccccc1)C(=O)CC(C)(COC(C)(C)C)O2` (stereo not given) showed a melting point of 51 to 62 °C.

Turning to `Cc1ccc(-c2cc(CN)c(=O)n(CC(C)C)n2)cc1`, the melting point is 74.9 to 77.9 °C.

In turn, `O=C(NCC12CC3CC(CC(C3)C1)C2)c1c(Cl)ccc2nc(N3CCC(O)(C(=O)O)CC3)ccc12` had a melting point of 200 to 204 °C.

Turning to `C=CCS(=O)c1ncc(Cl)cn1` (stereo not given), the melting point was 82 °C.

For `O=c1[nH]c2ccc(CCCCN3CCN(c4cccc5ccccc45)CC3)cc2o1`, the melting point was in the range of 231 to 233 °C.

Take `CC12CCC3c4ccc(OC(=O)Cc5ccccc5)cc4CCC3C1CCC2=O` (stereo not given): the melting point lay within 114 to 116 °C.

The molecule `O=C(NC(=O)c1ccc(F)cc1Cl)Nc1ccc(C(F)(F)F)c(F)c1` registered a melting point of 181 °C.

In the case of `COc1ccc2nc3ccc(CC(=O)O)cn3c(=O)c2c1`, the melting point fell in the range of 281 to 282 °C.

`NS(=O)(=O)c1cc(C(=O)OCC(=O)N2CCC(CCO[N+](=O)[O-])CC2)c(NCc2ccco2)cc1Cl` displayed a melting point of 170 °C.

As to `O=c1c(Cl)c(-c2ccncn2)nc2n1CCCN2C[C@@H](O)c1ccccc1`, the melting point lay within 158 to 160 °C.

`CCC(Oc1ccc(S(=O)(=O)c2ccc(C)nc2Nc2c(C)cc(C)cc2C)cc1)C(=O)OC` (stereo not given) returned a melting point of 111 to 113 °C.

As to `CN(c1cccc2cc(-c3nccs3)[nH]c12)S(=O)(=O)c1ccsc1C(N)=O`, the melting point turned out to be 269 °C.

In turn, `CC(=O)SCC(Cc1ccccc1)C(=O)Nc1cccc(C(=O)OCc2ccccc2)c1` (stereo not given) showed a melting point of 108 to 109 °C.

`COc1ncccc1NC(=NC#N)NC(NC(=O)c1ccc(Cl)cc1)C(C)(Cl)Cl` (stereo not given) came in with a melting point of 155 to 156 °C.

For `Cc1cccc(C(=O)NC(NC(=NC#N)Nc2ccc(Cl)nc2)C(C)(Cl)Cl)c1` (stereo not given), the melting point fell in the range of 145 to 146 °C.

`O=C1NCCC1=Cc1ccccc1OCC(O)CN1CCC(c2ccc3c(c2)CCCC3)CC1` (stereo not given) had a melting point of 157 to 159 °C.

In turn, `Cc1cncc(CC(=O)c2ccccc2)c1` displayed a melting point of 53 to 54 °C.

In turn, `CCC1OCCn2c1nc(C(=O)NCc1ccc(F)cc1-n1cncn1)c(OCc1ccccc1)c2=O` (stereo not given) gave a melting point of 155 to 157 °C.

With `CCCCNC(=O)Nc1cccc2c1C(=O)c1c-2n[nH]c1-c1ccc(OC)cc1`, the melting point was determined as 252 °C.

On to `CC(C)(C#N)Cc1ccc(-c2ccc(CC(C)(C)C#N)c(Cl)c2)cc1Cl`, for which the melting point was in the range of 148 to 156 °C.

`O=C(O)CCCCN1C(=O)c2ccc(C(=O)O)cc2C1=O` had a melting point of 223 °C.

In turn, `CCCCCCCCOC(=O)COc1cc(F)ccc1C(=O)NCc1cccc([N+](=O)[O-])c1` returned a melting point of 72 to 74 °C.

`Cc1ccc(C)n1CCNC(=O)Nc1ccc(Cl)cc1` registered a melting point of 175 to 177 °C.

Turning to `CCOc1c(C(=O)OCC(C)(C)C(=O)C(C)(C)C)oc2ccc(OC)cc12`, the melting point is 105 to 106 °C.

Molecule `COC(=O)CCC(=O)c1ccccc1N` registered a melting point of 50 to 51 °C.

`O=[N+]([O-])c1ccc(OCCc2ccc(CCl)cn2)cc1` showed a melting point of 77 to 78 °C.

In turn, `O=C(c1ccccc1)C(O)C1OC(n2ccc(=O)[nH]c2=O)C(O)(C(=O)c2ccccc2)C1(O)C(=O)c1ccccc1` (stereo not given) gave a melting point of 119 to 120 °C.

`O=C(CS(=O)Cc1ccco1)NCCCOc1cccc(C2OCCO2)c1` (stereo not given) showed a melting point of 95.3 to 96.1 °C.

Molecule `CC(C)CC1(C(C)C(=O)NO)CCN(CCc2ccccc2)C1=O` (stereo not given) came in with a melting point of 107 to 108 °C.

On to `CN(C)C(=O)C(C#N)=Cc1cc(O)c(O)c([N+](=O)[O-])c1`, for which the melting point is 183 to 185 °C.

As to `CCNCCn1c(-c2ccc(Br)cc2)cc2c1CCSC2`, the melting point lay within 84 to 85 °C.

In the case of `COc1ccc(CN2C(=O)C(N)C(=O)N(CC34CC5CC(CC(C5)C3)C4)c3ccccc32)cc1` (stereo not given), the melting point was in the range of 223 to 225 °C.

In turn, `CCC#CC(C)(C)NC(=O)C(Br)CC` (stereo not given) showed a melting point of 53 to 55 °C.

For `CNC(=O)c1cccc(NC(=O)COc2ccccc2OC)c1`, the melting point was found to be 133 °C.

Take `COc1ccc(S(=O)(=O)C(CCCCc2ccccc2)(CC(=O)O)c2ccccc2)cc1` (stereo not given): the melting point lay in the range of 75 to 78 °C.

Molecule `CC(C)C(=O)N1CC(OCc2ccccc2)C(OCc2ccccc2)C(OCc2ccccc2)C1COCc1ccccc1` (stereo not given) yielded a melting point of 185 to 189 °C.

Turning to `CC(=O)OCCN1C2=NCCN2C(=O)c2ccccc21`, the melting point was in the range of 124 to 126 °C.

On to `COC(=O)c1nc(CN=[N+]=[N-])n2c1CN=C(c1ccccc1Cl)c1cc(Cl)ccc1-2`, for which the melting point lay in the range of 187 to 189 °C.

Consider `O=C(O)CCCC#CCN1C(=O)c2ccccc2C1=O`, for which the melting point fell in the range of 120 to 122 °C.

`CCCCCCCCCCCCc1c[nH]cn1` registered a melting point of 69 to 71 °C.

The molecule `NNc1nccc2nc(-c3ccccc3)nn12` showed a melting point of 216 to 218 °C.

The molecule `CCNC(C)c1nc(CSCCNC(=C[N+](=O)[O-])NC)cs1` (stereo not given) gave a melting point of 114 to 116 °C.

Consider `O=c1cc(-c2ccc(OCCCCl)cc2)cn[nH]1`, for which the melting point fell in the range of 197 to 199 °C.

For the molecule `CC1(C)Oc2ccc(C#N)cc2[C@@H](NC(=O)c2ccc(C(F)(F)F)cc2)[C@@H]1O` (relative stereo), the melting point was found to be 225 °C.

Regarding `O=C(Nc1ccccc1)c1cccc([N+](=O)[O-])c1`, the melting point lay in the range of 153 to 154 °C.

Take `O=S1(=O)N=Cc2cccc(Cl)c21`: the melting point lay in the range of 162 to 164 °C.

`Cc1coc2cc(N3CCCCC3)c(Cl)cc12` showed a melting point of 82 to 84 °C.

As for `CC(O)(c1ccc(F)cc1)C1CCN(CCCC(=O)c2ccc(F)cc2)CC1` (stereo not given), the melting point lay within 116 to 118 °C.

Molecule `Cc1cccc(-c2cn(C)cc(-c3cccc(Br)c3)c2=O)c1` showed a melting point of 144 to 147 °C.

As for `CCOC(=O)c1c(C)cc(OCc2cccc(OCc3ccc4ccccc4n3)c2)cc1O`, the melting point lay within 127 to 128 °C.

Molecule `COc1cc(OCCN2CCOCC2)c(C=O)cc1-c1cccs1` had a melting point of 130 to 131 °C.

With `COCc1cc2c(s1)CCc1cc(=O)n(-c3ccc(Cl)cc3)nc1-2`, the melting point lay in the range of 159 to 160 °C.

Turning to `CCS(=O)(=O)Nc1cccc(C(=C(C)C)c2c[nH]cn2)c1`, the melting point was 152 to 155 °C.

In turn, `CCCc1c(/C=C/c2ccccc2C)nc2ccc(C(=O)O)cn2c1=O` displayed a melting point of 190 to 191 °C.

Turning to `O=C(CN1CCOCC1)N[C@@H](Cc1cccc2ccccc12)C(=O)O`, the melting point was in the range of 100 to 103 °C.

On to `Cc1cccc(NC(=O)C2=C(O)c3ccccc3S(=O)(=O)N2C)c(=O)c1`, for which the melting point was in the range of 276 to 280 °C.

The molecule `O=C(C=Cc1ccc(Oc2ccccc2)cc1)c1ccc(F)cc1` registered a melting point of 116 °C.

Take `CC(=O)SCSc1nnn[nH]1`: the melting point stood at 90 °C.

Regarding `CC1=C(C(=O)OCCN(C)Cc2ccccc2)C(c2cccc([N+](=O)[O-])c2)c2c(N)nc(N)nc2N1` (stereo not given), the melting point is 162 °C.

As to `C=Cn1cc(C(=O)O)c(=O)c2cc(F)c(N3CCN(C)C(C)C3)c(F)c21` (stereo not given), the melting point lay within 178 to 179 °C.

For `Cn1c(C(F)(F)F)cc(=O)n(-c2cc(OC(=O)CCC(=O)OCCCl)c(Cl)cc2F)c1=O`, the melting point lay in the range of 94 to 96 °C.

`CN(C)N=Cc1cc2c(cn1)[nH]c1ccccc12` returned a melting point of 203 to 206 °C.

`Cc1ccc(C=C2c3ncc(C)cc3CCC2(C)C)cc1` showed a melting point of 153 °C.

As for `Cc1ccc(C)n1Nc1ccc(Cl)nn1`, the melting point is 173 to 175 °C.

In turn, `Oc1cc(Cl)c2c(C34CC5CC(CC(C5)C3)C4)noc2c1` returned a melting point of 215 °C.

On to `Cc1ccc(C2=NCCc3c(Cl)cccc32)cc1`, for which the melting point fell in the range of 82.7 to 83.4 °C.

Regarding `CC(C)(OCc1nn(C(c2ccccc2)(c2ccccc2)c2ccccc2)c2ccccc12)C(=O)O`, the melting point fell in the range of 179 to 180 °C.

In turn, `Cc1csc(N)c1S(N)(=O)=O` displayed a melting point of 142 to 144 °C.

In the case of `Clc1nc(N2CCOCC2)c2ccccc2n1`, the melting point lay in the range of 103 to 105 °C.
